From the NIST ThermoML archive (doi:10.1021/acs.jced.9b00507)

Assay: xn = mol fraction of the nth substance listed
Conditions: 100 kPa, Liquid; for viscosity: Concentric cylinders viscometry; for mass density: Vibrating tube method

CCCCCCn1cc[n+](C)c1.O=[N+]([O-])[O-] [1-hexyl-3-methylimidazolium nitrate] + CCCCCCCCCO
Conditions | mass density [kg/m3] | viscosity [mPa·s]
293.15 K, x1 = 0.0819 | 856.1 | 15.74
293.15 K, x1 = 0.1609 | 882.8 | 22.23
293.15 K, x1 = 0.2386 | 908.3 | 30.27
293.15 K, x1 = 0.3483 | 942.9 | 48.53
293.15 K, x1 = 0.4392 | 970.5 | 71.12
293.15 K, x1 = 0.5588 | 1005.4 | 117.49
293.15 K, x1 = 0.6508 | 1031.3 | 177.42
293.15 K, x1 = 0.7394 | 1055.3 | 263.63
293.15 K, x1 = 0.8497 | 1083.9 | 413.05
293.15 K, x1 = 0.9456 | 1107.6 | 630.96
293.15 K, x1 = 1 | 1120.3 | 804.17
298.15 K, x1 = 0.0819 | 852.5 | 12.59
298.15 K, x1 = 0.1609 | 879.2 | 16.67
298.15 K, x1 = 0.2386 | 904.7 | 21.93
298.15 K, x1 = 0.3483 | 939.3 | 33.81
298.15 K, x1 = 0.4392 | 967 | 48.19
298.15 K, x1 = 0.5588 | 1001.9 | 79.43
298.15 K, x1 = 0.6508 | 1027.9 | 118.3
298.15 K, x1 = 0.7394 | 1052 | 175.79
298.15 K, x1 = 0.8497 | 1080.7 | 288.4
298.15 K, x1 = 0.9456 | 1104.5 | 439.6
298.15 K, x1 = 1 | 1117.5 | 545.25
303.15 K, x1 = 0.0819 | 849 | 10.19
303.15 K, x1 = 0.1609 | 875.5 | 13.18
303.15 K, x1 = 0.2386 | 901 | 16.79
303.15 K, x1 = 0.3483 | 935.6 | 24.27
303.15 K, x1 = 0.4392 | 963.3 | 33.11
303.15 K, x1 = 0.5588 | 998.3 | 51.88
303.15 K, x1 = 0.6508 | 1024.3 | 76.03
303.15 K, x1 = 0.7394 | 1048.4 | 113.24
303.15 K, x1 = 0.8497 | 1077.3 | 188.34
303.15 K, x1 = 0.9456 | 1101.2 | 294.59
303.15 K, x1 = 1 | 1114.3 | 369.14
308.15 K, x1 = 0.0819 | 845.5 | 8.41
308.15 K, x1 = 0.1609 | 872 | 10.05
308.15 K, x1 = 0.2386 | 897.4 | 12.25
308.15 K, x1 = 0.3483 | 932 | 16.94
308.15 K, x1 = 0.4392 | 959.7 | 22.08
308.15 K, x1 = 0.5588 | 994.7 | 32.81
308.15 K, x1 = 0.6508 | 1020.6 | 45.71
308.15 K, x1 = 0.7394 | 1044.8 | 68.08
308.15 K, x1 = 0.8497 | 1073.7 | 116.37
308.15 K, x1 = 0.9456 | 1097.8 | 192.31
308.15 K, x1 = 1 | 1111.1 | 257.59
313.15 K, x1 = 0.0819 | 841.9 | 6.7
313.15 K, x1 = 0.1609 | 868.3 | 7.87
313.15 K, x1 = 0.2386 | 893.7 | 9.06
313.15 K, x1 = 0.3483 | 928.3 | 11.04
313.15 K, x1 = 0.4392 | 956 | 13.27
313.15 K, x1 = 0.5588 | 991 | 18.92
313.15 K, x1 = 0.6508 | 1017 | 26.73
313.15 K, x1 = 0.7394 | 1041.2 | 41.3
313.15 K, x1 = 0.8497 | 1070.2 | 73.71
313.15 K, x1 = 0.9456 | 1094.4 | 136.37
313.15 K, x1 = 1 | 1107.8 | 185.67
318.15 K, x1 = 0.0819 | 838.3 | 5.28
318.15 K, x1 = 0.1609 | 864.7 | 5.78
318.15 K, x1 = 0.2386 | 890 | 6.35
318.15 K, x1 = 0.3483 | 924.6 | 7.36
318.15 K, x1 = 0.4392 | 952.3 | 8.61
318.15 K, x1 = 0.5588 | 987.4 | 11.46
318.15 K, x1 = 0.6508 | 1013.5 | 15.85
318.15 K, x1 = 0.7394 | 1037.8 | 25.39
318.15 K, x1 = 0.8497 | 1066.9 | 53.43
318.15 K, x1 = 0.9456 | 1091.2 | 101.71
318.15 K, x1 = 1 | 1104.7 | 140.18
323.15 K, x1 = 0.0819 | 834.7 | 4.15
323.15 K, x1 = 0.1609 | 861.1 | 4.25
323.15 K, x1 = 0.2386 | 886.4 | 4.41
323.15 K, x1 = 0.3483 | 921 | 4.84
323.15 K, x1 = 0.4392 | 948.6 | 5.33
323.15 K, x1 = 0.5588 | 983.8 | 6.84
323.15 K, x1 = 0.6508 | 1009.9 | 9.63
323.15 K, x1 = 0.7394 | 1034.3 | 16.2
323.15 K, x1 = 0.8497 | 1063.5 | 37.68
323.15 K, x1 = 0.9456 | 1088 | 78.73
323.15 K, x1 = 1 | 1101.6 | 110.94

CCCCCCn1cc[n+](C)c1.O=[N+]([O-])[O-] [1-hexyl-3-methylimidazolium nitrate] + CCCCCCCCO
Conditions | mass density [kg/m3] | viscosity [mPa·s]
293.15 K, x1 = 0.0806 | 856.1 | 15.49
293.15 K, x1 = 0.1591 | 885.1 | 23.39
293.15 K, x1 = 0.2392 | 913.2 | 34.36
293.15 K, x1 = 0.3493 | 949.6 | 55.85
293.15 K, x1 = 0.4396 | 977.6 | 83.56
293.15 K, x1 = 0.5621 | 1013.2 | 149.62
293.15 K, x1 = 0.649 | 1036.9 | 222.84
293.15 K, x1 = 0.7407 | 1060.6 | 331.13
293.15 K, x1 = 0.8495 | 1087 | 504.66
293.15 K, x1 = 0.9397 | 1107.4 | 677.63
293.15 K, x1 = 1 | 1120.3 | 804.17
298.15 K, x1 = 0.0806 | 852.6 | 11.3
298.15 K, x1 = 0.1591 | 881.4 | 15.96
298.15 K, x1 = 0.2392 | 909.5 | 22.23
298.15 K, x1 = 0.3493 | 946 | 34.83
298.15 K, x1 = 0.4396 | 974 | 51.05
298.15 K, x1 = 0.5621 | 1009.7 | 89.33
298.15 K, x1 = 0.649 | 1033.6 | 133.05
298.15 K, x1 = 0.7407 | 1057.3 | 205.44
298.15 K, x1 = 0.8495 | 1083.8 | 321.84
298.15 K, x1 = 0.9397 | 1104.4 | 446.63
298.15 K, x1 = 1 | 1117.5 | 545.25
303.15 K, x1 = 0.0806 | 848.9 | 8.53
303.15 K, x1 = 0.1591 | 877.7 | 11.46
303.15 K, x1 = 0.2392 | 905.8 | 15.38
303.15 K, x1 = 0.3493 | 942.3 | 23.23
303.15 K, x1 = 0.4396 | 970.3 | 33.11
303.15 K, x1 = 0.5621 | 1006.1 | 54.2
303.15 K, x1 = 0.649 | 1030 | 78.89
303.15 K, x1 = 0.7407 | 1053.8 | 122.74
303.15 K, x1 = 0.8495 | 1080.4 | 203.15
303.15 K, x1 = 0.9397 | 1101.1 | 292.37
303.15 K, x1 = 1 | 1114.3 | 369.14
308.15 K, x1 = 0.0806 | 845.3 | 6.7
308.15 K, x1 = 0.1591 | 874.1 | 8.47
308.15 K, x1 = 0.2392 | 902.1 | 10.57
308.15 K, x1 = 0.3493 | 938.6 | 14.52
308.15 K, x1 = 0.4396 | 966.7 | 19.63
308.15 K, x1 = 0.5621 | 1002.5 | 32.58
308.15 K, x1 = 0.649 | 1026.4 | 47.1
308.15 K, x1 = 0.7407 | 1050.3 | 73.28
308.15 K, x1 = 0.8495 | 1077 | 127.64
308.15 K, x1 = 0.9397 | 1097.8 | 197.38
308.15 K, x1 = 1 | 1111.1 | 257.59
313.15 K, x1 = 0.0806 | 841.7 | 5.41
313.15 K, x1 = 0.1591 | 870.4 | 6.35
313.15 K, x1 = 0.2392 | 898.4 | 7.59
313.15 K, x1 = 0.3493 | 934.8 | 10
313.15 K, x1 = 0.4396 | 963 | 12.88
313.15 K, x1 = 0.5621 | 998.8 | 19.77
313.15 K, x1 = 0.649 | 1022.7 | 28.31
313.15 K, x1 = 0.7407 | 1046.7 | 44.73
313.15 K, x1 = 0.8495 | 1073.5 | 81.32
313.15 K, x1 = 0.9397 | 1094.4 | 135.25
313.15 K, x1 = 1 | 1107.8 | 185.67
318.15 K, x1 = 0.0806 | 838 | 4.25
318.15 K, x1 = 0.1591 | 866.7 | 4.67
318.15 K, x1 = 0.2392 | 894.7 | 5.41
318.15 K, x1 = 0.3493 | 931.2 | 7.05
318.15 K, x1 = 0.4396 | 959.3 | 8.91
318.15 K, x1 = 0.5621 | 995.2 | 13.87
318.15 K, x1 = 0.649 | 1019.2 | 19.95
318.15 K, x1 = 0.7407 | 1043.2 | 31.92
318.15 K, x1 = 0.8495 | 1070.1 | 56.98
318.15 K, x1 = 0.9397 | 1091.1 | 99.97
318.15 K, x1 = 1 | 1104.7 | 140.18
323.15 K, x1 = 0.0806 | 834.4 | 3.56
323.15 K, x1 = 0.1591 | 863 | 3.84
323.15 K, x1 = 0.2392 | 891 | 4.28
323.15 K, x1 = 0.3493 | 927.5 | 5.25
323.15 K, x1 = 0.4396 | 955.7 | 6.46
323.15 K, x1 = 0.5621 | 991.6 | 9.46
323.15 K, x1 = 0.649 | 1015.7 | 13.58
323.15 K, x1 = 0.7407 | 1039.8 | 22.08
323.15 K, x1 = 0.8495 | 1066.8 | 42.16
323.15 K, x1 = 0.9397 | 1087.9 | 76.46
323.15 K, x1 = 1 | 1101.6 | 110.94
